Patent US20090105324A1, “IMIDAZOLE DERIVATIVES FOR USE AS EDG-1 ANTAGONISTS” (AstraZeneca AB, priority 2006, published 2009)

Target: T1, EDG-1/S1P1 receptor (Homo sapiens, UniProt P21453)
T1 construct: expressed in transfected cells; host or cells: U2OS (human osteogenic sarcoma), EDG-1 Transfluor U2OS WT Clone #37
Test: In Vitro Cell Based Receptor Activation Assay-Transfluor Assay
Conditions: EDG-1 Transfluor U2OS WT Clone #37 cells; beta-arrestin GFP relocalization in presence of S1P
Excerpt: This cell-based assay was designed to assess the ability of small molecule antagonists to inhibit activation of the GPCR S1P1 in the presence of its cognate ligand S1P. The assay used technology initially developed by Norak Biosciences (Xsira Pharmaceutical) and presently owned by Molecular Devices. A human osteogenic sarcoma (U2OS) cell line overexpressing the EDG-1/S1P1) receptor as well as a beta-arrestin/green fluorescent protein (GFP) construct hereafter termed EDG-1 Transfluor U2OS WT Clone #37 was employed.
Using a high content screening approach (Cellomics Arrayscan), receptor activity was measured by assessment of the relocalization of beta-arrestin GFP in response to stimulation of EDG-1 by S1P. Specifically, EDG-1 Transfluor U2OS WT Clone #37 cells were plated at a density of 6250 cells in 40 uL medium per well in 384 well plastic bottomed inicrotiter plates (BD Falcon) and incubated overnight at 37° C./5% CO2. Prior to screening, compounds were dissolved in 100% dimethyl sulfoxide (DMSO) to a final stock concentration of 10 mM. Compounds were then serially diluted at 30× final concentration in EDG-1 Transfluor cell growth medium containing 30% DMSO using the Tecan Genesis instrument. […] Plates were then sealed and analysed on the Cellomics Arrayscan using the GPCR signalling algorithm. EC50 values were then calculated using IDBS ActivityBase software.

T1 sequence (P21453 whole entry): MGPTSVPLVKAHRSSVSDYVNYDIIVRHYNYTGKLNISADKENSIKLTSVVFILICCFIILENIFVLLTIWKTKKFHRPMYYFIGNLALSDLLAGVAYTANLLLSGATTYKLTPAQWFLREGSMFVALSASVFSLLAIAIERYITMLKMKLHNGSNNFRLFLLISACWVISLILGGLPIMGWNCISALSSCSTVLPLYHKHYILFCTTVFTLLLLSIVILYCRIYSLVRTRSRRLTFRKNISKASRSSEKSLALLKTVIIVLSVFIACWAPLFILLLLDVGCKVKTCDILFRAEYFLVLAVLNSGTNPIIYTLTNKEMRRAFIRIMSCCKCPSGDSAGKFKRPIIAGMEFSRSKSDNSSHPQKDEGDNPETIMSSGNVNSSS

EC50: 2120 nM
Structure (SMILES): Cc1cnc(C(Cc2ccccc2)NS(=O)(=O)c2ccc(Cl)cc2)n1C (stereo not shown) [Example 1, 4-Chloro-N-[1-(1,5-dimethyl-1H-imidazol-2-yl)-2-phenylethyl]benzenesulfonamide]
